Results as given in publication PMC10584882 (Communications Biology, 2023).
“And” between values parts separate entries of the source, which are not always exact repeats. Equal entries are not always repeated. “Also recorded” adds a separate entry of the source.

Assays:
[1] = S-Calpeptin toxicity experiment in Golden Syrian hamsters (weight, blood cell count, histopathology); format: in vivo, Golden Syrian hamsters (Mesocricetus auratus); set-up: leukocytes / neutrophils / lymphocytes / monocytes: unit not given here
CatL = target: T1, CatL (Homo sapiens, UniProt P07711); assay: Cathepsin inhibition test, CatL; format: biochemical; conditions: for Residual activity (Vi/V0): Fig. S3 panel b, single replicates
T1 construct: made in house

SARS-CoV-2 = assay: Anti-viral experiment with Golden Syrian hamsters: viral load in lungs and trachea; format: in vivo, Golden Syrian hamsters (Mesocricetus auratus); conditions: 1 mg/kg s.c. daily from day 1; for RNA - lung / RNA - trachea / titer - lung / titer - trachea: individual hamsters; for viral load in trachea versus untreated group (in words): TCID50
[2] = blood cell count, 2 mg/kg S-Calpeptin, individual animals 7-9, 2 mg/kg
[3] = blood cell count, 3 mg/kg S-Calpeptin, individual animals 10-12, 3 mg/kg

T1 sequence (P07711 114-333): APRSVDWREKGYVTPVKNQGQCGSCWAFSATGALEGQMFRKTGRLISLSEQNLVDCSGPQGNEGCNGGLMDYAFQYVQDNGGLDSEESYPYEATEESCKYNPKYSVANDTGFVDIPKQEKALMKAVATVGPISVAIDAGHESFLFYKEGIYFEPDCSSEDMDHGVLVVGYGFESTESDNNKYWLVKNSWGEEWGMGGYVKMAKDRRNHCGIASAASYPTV

CCCC[C@H](NC(=O)[C@H](CC(C)C)NC(=O)OCc1ccccc1)C(O)S(=O)(=O)[O-].[Na+] (stereo partly drawn) [S-Calpeptin]
lymphocytes [1, 2]: 1104 and 748 and 486 | monocytes [1, 2]: 214 and 352 and 680 | neutrophils [1, 2]: 427 and 1056 and 389 | leukocytes [1, 3]: 3000 and 1360 and 2190 | lymphocytes [1, 3]: 1860 and 653 and 1270 | monocytes [1, 3]: 450 and 163 and 350 | neutrophils [1, 3]: 630 and 517 and 569 | blood cell count finding (in words) ([1]; hamsters, 2 mg/kg or 3 mg/kg s.c. daily, end of seven-days protocol): marked leukopenia; also recorded: blood leukopenia | acute toxicity-related clinical signs or weight loss (in words) ([1]; hamsters, 1, 2 or 3 mg/kg s.c. daily): no signs of acute toxicity; also recorded: did not display acute toxicity-related clinical signs | side effects (in words) ([1]; hamsters, daily dose of 1 mg/kg s.c. over seven days): no apparent side effects | Residual activity (Vi/V0) (CatL; inhibitor 0.010 nM, 10 pM): 1.426 and 1.05 and 1.025 and 1.009 and 1.011 and 1.078 and 1.028 and 1.031 and 1.036 and 1.201 | Residual activity (Vi/V0) (CatL; inhibitor 0.018 nM, 18 pM): 1.349 and 1.024 and 1.036 and 0.8728 and 0.9988 and 0.9818 (2×) and 1.042 and 1.062 and 1.149 | Residual activity (Vi/V0) (CatL; inhibitor 0.032 nM, 32 pM): 1.453 and 0.9142 and 1.1 and 1.088 and 1.079 and 0.9024 and 0.9567 and 1.006 and 0.9803 and 1.2694 | Residual activity (Vi/V0) (CatL; inhibitor 0.058 nM, 58 pM): 1.377 and 1.0256 and 0.8968 and 0.9231 and 0.8862 and 0.9577 and 1.001 and 1.006 and 1.052 and 1.254 | Residual activity (Vi/V0) (CatL; inhibitor 0.105 nM, 0.000105 µM): 1.053 and 0.914 and 0.68 and 0.6925 and 0.711 and 0.8569 and 0.909 and 1.0072 and 0.8377 and 1.071 | Residual activity (Vi/V0) (CatL; inhibitor 0.189 nM, 0.000189 µM): 0.9886 and 0.7158 and 0.5095 and 0.5746 and 0.5088 and 0.7745 and 0.7818 and 0.8193 and 0.7501 and 1.054 | Residual activity (Vi/V0) (CatL; inhibitor 0.340 nM, 0.00034 µM): 0.5984 and 0.5107 and 0.3117 and 0.3431 and 0.2757 and 0.5388 and 0.5659 and 0.5589 and 0.4129 and 0.6122 | Residual activity (Vi/V0) (CatL; inhibitor 0.612 nM, 0.000612 µM): 0.6669 and 0.3311 and 0.2683 and 0.3139 and 0.2767 and 0.6359 and 0.6301 and 0.62 and 0.515 and 0.8313 | Residual activity (Vi/V0) (CatL; inhibitor 1.103 nM, 0.001103 µM): 0.5114 and 0.2133 and 0.2013 and 0.1965 and 0.1624 and 0.4143 and 0.3924 and 0.3311 and 0.3975 and 0.5758 | Residual activity (Vi/V0) (CatL; inhibitor 1.985 nM, 0.001985 µM): 0.3099 and 0.145 and 0.1192 and 0.1108 and 0.1144 and 0.3088 and 0.318 and 0.3267 and 0.2219 and 0.2968 | Ki (CatL; mean with standard deviation and 95% confidence interval, pH 5.5, 37 °C): 0.148 nM | RNA - lung (SARS-CoV-2; day 3 p.i., 1 mg/kg): 2.194 SARS-CoV-2 RNA copies/β actin RNA copies and 2.076 SARS-CoV-2 RNA copies/β actin RNA copies and 2.135 SARS-CoV-2 RNA copies/β actin RNA copies and 5.784 SARS-CoV-2 RNA copies/β actin RNA copies and 2.611 SARS-CoV-2 RNA copies/β actin RNA copies | RNA - trachea (SARS-CoV-2; day 3 p.i., 1 mg/kg): 2.441 SARS-CoV-2 RNA copies/β actin RNA copies and 1.131 SARS-CoV-2 RNA copies/β actin RNA copies and 3.086 SARS-CoV-2 RNA copies/β actin RNA copies and 1.769 SARS-CoV-2 RNA copies/β actin RNA copies and 1.594 SARS-CoV-2 RNA copies/β actin RNA copies | titer - lung (SARS-CoV-2; day 3 p.i., 1 mg/kg): 10.089 log TCID50/g and 9.011 log TCID50/g and 10.277 log TCID50/g and 9.5756 log TCID50/g and 8.981 log TCID50/g | titer - trachea (SARS-CoV-2; day 3 p.i., 1 mg/kg): 5.2099 log TCID50/g and 3.791 log TCID50/g and 5.949 log TCID50/g and 7.023 log TCID50/g and 7.625 log TCID50/g | RNA - lung (SARS-CoV-2; day 5 p.i., 1 mg/kg): 2.363 SARS-CoV-2 RNA copies/β actin RNA copies and 1.994 SARS-CoV-2 RNA copies/β actin RNA copies and 2.073 SARS-CoV-2 RNA copies/β actin RNA copies and 2.178 SARS-CoV-2 RNA copies/β actin RNA copies and 1.943 SARS-CoV-2 RNA copies/β actin RNA copies | RNA - trachea (SARS-CoV-2; day 5 p.i., 1 mg/kg): 1.729 SARS-CoV-2 RNA copies/β actin RNA copies and 2.0935 SARS-CoV-2 RNA copies/β actin RNA copies and 2.166 SARS-CoV-2 RNA copies/β actin RNA copies and 1.097 SARS-CoV-2 RNA copies/β actin RNA copies and 1.597 SARS-CoV-2 RNA copies/β actin RNA copies | titer - lung (SARS-CoV-2; day 5 p.i., 1 mg/kg): 7.002 log TCID50/g and 7.059 log TCID50/g and 6.976 log TCID50/g and 7.092 log TCID50/g and 6.453 log TCID50/g | titer - trachea (SARS-CoV-2; day 5 p.i., 1 mg/kg): 0 log TCID50/g and 2.787 log TCID50/g | titer - trachea (SARS-CoV-2; day 7 p.i.): 0 log TCID50/g | RNA - lung (SARS-CoV-2; day 7 p.i., 1 mg/kg): 0.6096 SARS-CoV-2 RNA copies/β actin RNA copies and 0.8217 SARS-CoV-2 RNA copies/β actin RNA copies and 0.4837 SARS-CoV-2 RNA copies/β actin RNA copies and 0.3749 SARS-CoV-2 RNA copies/β actin RNA copies and 1.469 SARS-CoV-2 RNA copies/β actin RNA copies | RNA - trachea (SARS-CoV-2; day 7 p.i., 1 mg/kg): 0.3702 SARS-CoV-2 RNA copies/β actin RNA copies and -0.0169 SARS-CoV-2 RNA copies/β actin RNA copies and -0.6383 SARS-CoV-2 RNA copies/β actin RNA copies and 0.1661 SARS-CoV-2 RNA copies/β actin RNA copies and 0.09095 SARS-CoV-2 RNA copies/β actin RNA copies | titer - lung (SARS-CoV-2; day 7 p.i., 1 mg/kg): 0 log TCID50/g and 1.7736 log TCID50/g | viral load in lungs versus untreated group (in words) (SARS-CoV-2; hamsters, day 5 p.i., 1 mg/kg): lower SARS-CoV-2 titers in the treated group compared to the untreated group; also recorded: lower viral loads in their trachea and lungs | viral load in trachea versus untreated group (in words) (SARS-CoV-2; hamsters, day 5 p.i., 1 mg/kg): statistically significant difference on TCID50 viral load in trachea; also recorded: reduces viral load in trachea; also recorded: significant reduction of the viral load in trachea on day 5; also recorded: the decrease was only statistically significant in the trachea | viral load in trachea versus untreated group (in words) (SARS-CoV-2; hamsters, day 5 p.i., listed as sulfonated Calpeptin, 1 mg/kg): reduces the viral load in the trachea
